Target: human mGluR7 (Homo sapiens (Human), UniProt Q14831)
Test: Inositol monophosphate production assay (IP1 assay), inhibition of L-AP4 response
Format: cell-based
Conditions: mean IC50 from at least two independent experiments; HEK293 cells transiently transfected with mGluR7, Gqtop and EAAC1; IP1 production vs EC80 L-AP4
Description: Inositol Monophosphate Production Assay (IP1 Assay):
HEK293 cells were transiently transfected with mGluR7 by electroporation and seeded in a poly-ornithine coated 96-well plate at the density of 150 000 cells/well. To allow the monitoring of receptor activity through measurements of inositol monophosphate (IP1) production, mGluR7 was transfected with a chimeric Gq/Gi protein (Gqtop). and was also co-transfected with EAAC1, a glutamate transporter, to avoid influence of extracellular glutamate. Cells were cultured in Dulbecco's Modified Eagle Medium (DMEM, Invitrogen, Cergy Pontoise, France), supplemented with 10% of Fetal Bovine Serum (FBS). Medium was changed by Glutamax™ (Invitrogen, Cergy Pontoise, France) to reduce extracellular glutamate concentration 3 hours before stimulation
IP1 production was determined using the IP-One HTRF kit (CisBio Bioassays), a competitive immunoassay using cryptate-labeled anti-IP1 antibody and d2-labeled IP, according to the manufacturer's recommendations. All points were realized in triplicate.
Data were analyzed with Prism 6 software (GraphPadSoftware, San Diego, Calif.). Typically, in each experiment, a four-parameter concentration-response curve equation was used to fit data and potency (IC50) is estimated as logarithms (log IC50). Data were calculated as % of the control mGluR7 agonist L-AP4 response, defined as the response that is generated upon addition of an EC80-equivalent concentration of L-AP4.
The Table 2 below represents the mean IC50 obtained from at least two independent experiments.

Sequence of human mGluR7 (Q14831 35-915): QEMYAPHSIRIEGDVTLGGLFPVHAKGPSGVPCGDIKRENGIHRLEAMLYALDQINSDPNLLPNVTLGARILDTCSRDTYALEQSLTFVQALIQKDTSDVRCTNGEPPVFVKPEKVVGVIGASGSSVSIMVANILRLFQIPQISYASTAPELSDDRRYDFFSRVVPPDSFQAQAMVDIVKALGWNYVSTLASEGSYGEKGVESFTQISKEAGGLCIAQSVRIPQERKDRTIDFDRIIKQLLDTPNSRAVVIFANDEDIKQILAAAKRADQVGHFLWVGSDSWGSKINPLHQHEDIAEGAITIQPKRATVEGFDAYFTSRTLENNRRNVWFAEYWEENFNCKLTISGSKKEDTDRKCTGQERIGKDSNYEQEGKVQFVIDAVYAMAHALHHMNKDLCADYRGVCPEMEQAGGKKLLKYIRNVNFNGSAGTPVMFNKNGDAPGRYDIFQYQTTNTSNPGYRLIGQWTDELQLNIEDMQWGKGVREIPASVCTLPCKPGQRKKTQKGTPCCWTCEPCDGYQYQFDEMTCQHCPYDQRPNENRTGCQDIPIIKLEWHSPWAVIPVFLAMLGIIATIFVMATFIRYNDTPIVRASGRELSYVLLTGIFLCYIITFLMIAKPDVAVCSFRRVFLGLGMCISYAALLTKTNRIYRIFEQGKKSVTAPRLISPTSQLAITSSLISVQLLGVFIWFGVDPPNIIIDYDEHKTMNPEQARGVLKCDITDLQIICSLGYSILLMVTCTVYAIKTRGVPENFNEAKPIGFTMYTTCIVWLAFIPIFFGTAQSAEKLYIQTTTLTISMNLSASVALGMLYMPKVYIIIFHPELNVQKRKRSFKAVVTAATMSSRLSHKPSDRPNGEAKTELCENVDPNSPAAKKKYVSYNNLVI

SMILES | IC50
Cc1ccc(C2CCc3c(cnn(-c4ccc(N5CCOCC5)cn4)c3=O)C2)c(C)c1 (centres unmarked) [Example 114, 6-(2,4-dimethylphenyl)-2-(5-morpholinopyridin-2-yl)-5,6,7,8-tetrahydrophthalazin-1(2H)-one] | < 500 nM
CC(O)c1cccc(C2CCc3c(cnn(-c4ccccn4)c3=O)C2)c1 (centres unmarked) [Example 65, 6-(3-(1-hydroxyethyl)phenyl)-2-(pyridin-2-yl)-5,6,7,8-tetrahydrophthalazin-1(2H)-one] | 500 to 1000 nM
Cc1ccc(C2CCc3c(cnn(-c4ccccn4)c3=O)C2)c(C)c1 (single isomer, unassigned; (-)) [Example 4, (−)-6-(2,4-dimethyl-phenyl)-2-pyridin-2-yl-5,6,7,8-tetrahydro-2H-phthalazin-1-one] | 1000 to 30000 nM
Cc1cnc(-n2ncc3c(c2=O)CCC(c2cccc(OC4CC4)c2C)C3)nc1 (single isomer, unassigned; (-)) [Example 132, (−)-6-(3-cyclopropoxy-2-methylphenyl)-2-(5-methylpyrimidin-2-yl)-5,6,7,8-tetrahydrophthalazin-1(2H)-one] | < 500 nM
COCc1ccc(-n2ncc3c(c2=O)CCC(c2ccc(C)cc2C)C3)nc1 (centres unmarked) [Example 27, 6-(2,4-dimethylphenyl)-2-(5-(methoxymethyl)pyridin-2-yl)-5,6,7,8-tetrahydrophthalazin-1(2H)-one] | < 500 nM
COc1cccc(-n2ncc3c(c2=O)CCC(c2ccc(C)cc2C)C3)n1 (centres unmarked) [Example 13, 6-(2,4-dimethylphenyl)-2-(6-methoxypyridin-2-yl)-5,6,7,8-tetrahydrophthalazin-1(2H)-one] | < 500 nM
Cc1ccc(C2CCc3c(cnn(-c4ncccc4Cl)c3=O)C2)c(C)c1 (centres unmarked) [Example 8, 2-(3-chloropyridin-2-yl)-6-(2,4-dimethylphenyl)-5,6,7,8-tetrahydrophthalazin-1(2H)-one] | < 500 nM
Cc1ccc(-n2ncc3c(c2=O)CCC(c2ccc(C)cc2C)C3)nc1 (centres unmarked) [Example 18, 6-(2,4-dimethylphenyl)-2-(5-methylpyridin-2-yl)-5,6,7,8-tetrahydrophthalazin-1(2H)-one] | < 500 nM
COc1ccccc1C1CCc2c(cnn(-c3ccccn3)c2=O)C1 (centres unmarked) [Example 58, 6-(2-methoxyphenyl)-2-(pyridin-2-yl)-5,6,7,8-tetrahydrophthalazin-1(2H)-one] | < 500 nM
O=c1c2c(cnn1-c1ncccn1)CC(c1cccc3c1ccn3C1CC1)CC2 (centres unmarked) [Example 124, 6-(1-cyclopropyl-1H-indol-4-yl)-2-(pyrimidin-2-yl)-5,6,7,8-tetrahydrophthalazin-1(2H)-one] | < 500 nM
Cc1c(OC2CC2)cccc1C1CCc2c(cnn(-c3ncccn3)c2=O)C1 (centres unmarked) [Example 104, 6-(3-cyclopropoxy-2-methylphenyl)-2-(pyrimidin-2-yl)-5,6,7,8-tetrahydrophthalazin-1(2H)-one] | < 500 nM
Cc1c(OC2CC2)cccc1C1CCc2c(cnn(-c3ncccn3)c2=O)C1 (single isomer, unassigned; (-)) [Example 128, (−)-6-(3-cyclopropoxy-2-methylphenyl)-2-(pyrimidin-2-yl)-5,6,7,8-tetrahydrophthalazin-1(2H)-one] | < 500 nM
COc1ccnc(-n2ncc3c(c2=O)CCC(c2cccc(OC)c2C)C3)n1 (centres unmarked) [Example 42, 6-(3-methoxy-2-methylphenyl)-2-(4-methoxypyrimidin-2-yl)-5,6,7,8-tetrahydrophthalazin-1(2H)-one] | < 500 nM
COc1cccc(C2CCc3c(cnn(-c4ncc(N5CCOCC5)cn4)c3=O)C2)c1C (centres unmarked) [Example 112, 6-(3-methoxy-2-methylphenyl)-2-(5-morpholinopyrimidin-2-yl)-5,6,7,8-tetrahydrophthalazin-1(2H)-one] | < 500 nM
CC(=O)Nc1cnc(-n2ncc3c(c2=O)CCC(c2cccc(OC4CC4)c2C)C3)nc1 (centres unmarked) [Example 127, N-(2-(6-(3-cyclopropoxy-2-methylphenyl)-1-oxo-5,6,7,8-tetrahydrophthalazin-2(1H)-yl)pyrimidin-5-yl)acetamide] | < 500 nM
COc1cnc(-n2ncc3c(c2=O)CCC(c2cccc(OC)c2C)C3)cn1 (centres unmarked) [Example 44, 6-(3-methoxy-2-methylphenyl)-2-(5-methoxypyrazin-2-yl)-5,6,7,8-tetrahydrophthalazin-1(2H)-one] | < 500 nM
O=c1c2c(cnn1-c1ncccn1)CC(c1cccc3c1ccn3C1CC1)CC2 (single isomer, unassigned; (+)) [Example 138, (+)-6-(1-cyclopropyl-1H-indol-4-yl)-2-(pyrimidin-2-yl)-5,6,7,8-tetrahydrophthalazin-1(2H)-one] | 500 to 1000 nM
O=c1c2c(cnn1-c1ncccn1)CC(c1cccc(OC3CC3)c1)CC2 (centres unmarked) [Example 85, 6-(3-cyclopropoxyphenyl)-2-(pyrimidin-2-yl)-5,6,7,8-tetrahydrophthalazin-1(2H)-one] | < 500 nM
COc1cccnc1-n1ncc2c(c1=O)CCC(c1ccc(C)cc1C)C2 (centres unmarked) [Example 16, 6-(2,4-dimethylphenyl)-2-(3-methoxypyridin-2-yl)-5,6,7,8-tetrahydrophthalazin-1(2H)-one] | < 500 nM
COc1ccc(C2CCc3c(cnn(-c4ccccn4)c3=O)C2)cc1 (centres unmarked) [Example 3, 6-(4-methoxyphenyl)-2-(pyridin-2-yl)-5,6,7,8-tetrahydrophthalazin-1(2H)-one] | 1000 to 30000 nM
Cc1ccc(C2CCc3c(cnn(-c4cccc(F)n4)c3=O)C2)c(C)c1 (centres unmarked) [Example 9, 6-(2,4-dimethylphenyl)-2-(6-fluoropyridin-2-yl)-5,6,7,8-tetrahydrophthalazin-1(2H)-one] | < 500 nM
Cc1ccc(C2CCc3c(cnn(-c4ncc(CN5CCOCC5)cn4)c3=O)C2)c(C)c1 (centres unmarked) [Example 57, 6-(2,4-dimethylphenyl)-2-(5-(morpholinomethyl)pyrimidin-2-yl)-5,6,7,8-tetrahydrophthalazin-1(2H)-one] | < 500 nM

Second part, the compound after the results:

IC50 | SMILES
< 500 nM | Cc1cnc(-n2ncc3c(c2=O)CCC(c2ccc(C)cc2C)C3)nc1 (centres unmarked) [Example 52, 6-(2,4-dimethylphenyl)-2-(5-methylpyrimidin-2-yl)-5,6,7,8-tetrahydrophthalazin-1(2H)-one]
< 500 nM | COc1ccc(C)c(C2CCc3c(cnn(-c4ncc(Cl)cn4)c3=O)C2)c1 (centres unmarked) [Example 49, 2-(5-chloropyrimidin-2-yl)-6-(5-methoxy-2-methylphenyl)-5,6,7,8-tetrahydrophthalazin-1(2H)-one]
< 500 nM | Cc1ccc(C2CCc3c(cnn(-c4ncc(C(F)(F)F)cn4)c3=O)C2)c(C)c1 (centres unmarked) [Example 55, 6-(2,4-dimethylphenyl)-2-(5-(trifluoromethyl)pyrimidin-2-yl)-5,6,7,8-tetrahydrophthalazin-1(2H)-one]
< 500 nM | CC(=O)Nc1cnc(-n2ncc3c(c2=O)CCC(c2ccc(C)cc2C)C3)nc1 (centres unmarked) [Example 117, N-(2-(6-(2,4-dimethylphenyl)-1-oxo-5,6,7,8-tetrahydrophthalazin-2(1H)-yl)pyrimidin-5-yl)acetamide]
500 to 1000 nM | COc1cccc(C2CCc3c(cnn(-c4ncc(C)cn4)c3=O)C2)c1Cl (single isomer, unassigned; (+)) [Example 135, (+)-6-(2-chloro-3-methoxyphenyl)-2-(5-methylpyrimidin-2-yl)-5,6,7,8-tetrahydrophthalazin-1(2H)-one]
< 500 nM | Cc1ccc(C2CCc3c(cnn(-c4ncccn4)c3=O)C2)c(C)c1 (centres unmarked) [Example 29, 6-(2,4-dimethylphenyl)-2-(pyrimidin-2-yl)-5,6,7,8-tetrahydrophthalazin-1(2H)-one]
500 to 1000 nM | COc1cnc(-n2ncc3c(c2=O)CCC(c2cc(OC)ccc2C)C3)nc1 (centres unmarked) [Example 48, 6-(5-methoxy-2-methylphenyl)-2-(5-methoxypyrimidin-2-yl)-5,6,7,8-tetrahydrophthalazin-1(2H)-one]
500 to 1000 nM | COc1c(C)cccc1C1CCc2c(cnn(-c3ncccn3)c2=O)C1 (centres unmarked) [Example 71, 6-(2-methoxy-3-methylphenyl)-2-(pyrimidin-2-yl)-5,6,7,8-tetrahydrophthalazin-1(2H)-one]
< 500 nM | Cc1cnc(-n2ncc3c(c2=O)CCC(c2cccc(OC4CC4)c2C)C3)nc1 (centres unmarked) [Example 93, 6-(3-cyclopropoxy-2-methylphenyl)-2-(5-methylpyrimidin-2-yl)-5,6,7,8-tetrahydrophthalazin-1(2H)-one]
< 500 nM | COc1cccc(C2CCc3c(cnn(-c4ncc(C5CC5)cn4)c3=O)C2)c1C (centres unmarked) [Example 125, 2-(5-cyclopropylpyrimidin-2-yl)-6-(3-methoxy-2-methylphenyl)-5,6,7,8-tetrahydrophthalazin-1(2H)-one]
< 500 nM | COc1ccc(-n2ncc3c(c2=O)CCC(c2ccc(C)cc2C)C3)nc1 (centres unmarked) [Example 14, 6-(2,4-dimethylphenyl)-2-(5-methoxypyridin-2-yl)-5,6,7,8-tetrahydrophthalazin-1(2H)-one]
< 500 nM | Cc1ccc(C2CCc3c(cnn(-c4ccc(Cl)cn4)c3=O)C2)c(C)c1 (centres unmarked) [Example 6, 6-(2,4-dimethylphenyl)-2-(5-chlororopyridin-2-yl)-5,6,7,8-tetrahydro-phthalazin-1(2H)-one]
< 500 nM | Cc1ccc(C2CCc3c(cnn(-c4ncc(C5CC5)cn4)c3=O)C2)c(C)c1 (centres unmarked) [Example 109, 2-(5-cyclopropylpyrimidin-2-yl)-6-(2,4-dimethylphenyl)-5,6,7,8-tetrahydrophthalazin-1(2H)-one]

— patent US11414395B2, “Heterocyclic compounds as modulators of mGluR7” (PRAGMA Therapeutics, priority 2017, dated 2022)
